# Experimental data published in patent publication US5519024A, “Quinolonecarboxylic acid derivatives and their use” (Takeda Chemical Industries, Ltd., priority 1993, dated 1996).
# Like-named read-outs stand apart in the source and are kept apart here.
# Molecular target: T1, GPIIb/IIIa (Homo sapiens, UniProt P05106+P08514)
# T1 construct: Purification of GPIIb/IIIa from HEL cells; endogenous in cells; host or cells: HEL cells (HEL 92.1.7, ATCC TIB180); endogenous complex solubilized with Triton X-100 and purified in house
# T1 sequence (P08514 32-887 limits assumed): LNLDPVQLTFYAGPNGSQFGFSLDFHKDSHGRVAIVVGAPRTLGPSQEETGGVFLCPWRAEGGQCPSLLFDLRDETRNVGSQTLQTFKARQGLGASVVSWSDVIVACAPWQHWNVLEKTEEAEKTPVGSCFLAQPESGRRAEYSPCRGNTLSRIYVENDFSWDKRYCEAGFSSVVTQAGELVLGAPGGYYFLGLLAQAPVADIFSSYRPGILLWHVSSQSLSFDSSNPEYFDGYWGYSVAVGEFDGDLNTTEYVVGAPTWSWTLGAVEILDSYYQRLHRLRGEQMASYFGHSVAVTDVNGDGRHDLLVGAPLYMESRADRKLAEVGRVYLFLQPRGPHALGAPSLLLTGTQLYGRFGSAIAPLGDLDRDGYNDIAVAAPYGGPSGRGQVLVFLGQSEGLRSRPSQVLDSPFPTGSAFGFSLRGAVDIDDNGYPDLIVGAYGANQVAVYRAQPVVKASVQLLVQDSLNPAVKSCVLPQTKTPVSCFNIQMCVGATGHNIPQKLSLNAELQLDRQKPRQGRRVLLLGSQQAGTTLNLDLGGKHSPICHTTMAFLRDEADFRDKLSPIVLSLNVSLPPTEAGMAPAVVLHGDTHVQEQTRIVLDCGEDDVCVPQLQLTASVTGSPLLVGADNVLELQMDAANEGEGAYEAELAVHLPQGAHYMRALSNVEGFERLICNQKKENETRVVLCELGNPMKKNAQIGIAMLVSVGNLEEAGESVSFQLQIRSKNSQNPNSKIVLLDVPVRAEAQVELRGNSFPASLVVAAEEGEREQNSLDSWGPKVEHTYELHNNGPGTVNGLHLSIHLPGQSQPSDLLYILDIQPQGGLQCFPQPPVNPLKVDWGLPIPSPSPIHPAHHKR
# T1 sequence (P08514 891-1039 limits assumed): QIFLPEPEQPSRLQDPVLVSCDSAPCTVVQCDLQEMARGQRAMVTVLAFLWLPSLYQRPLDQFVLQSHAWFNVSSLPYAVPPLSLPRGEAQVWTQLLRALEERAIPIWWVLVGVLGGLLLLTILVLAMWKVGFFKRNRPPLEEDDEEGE
# T1 sequence (P05106 27-788): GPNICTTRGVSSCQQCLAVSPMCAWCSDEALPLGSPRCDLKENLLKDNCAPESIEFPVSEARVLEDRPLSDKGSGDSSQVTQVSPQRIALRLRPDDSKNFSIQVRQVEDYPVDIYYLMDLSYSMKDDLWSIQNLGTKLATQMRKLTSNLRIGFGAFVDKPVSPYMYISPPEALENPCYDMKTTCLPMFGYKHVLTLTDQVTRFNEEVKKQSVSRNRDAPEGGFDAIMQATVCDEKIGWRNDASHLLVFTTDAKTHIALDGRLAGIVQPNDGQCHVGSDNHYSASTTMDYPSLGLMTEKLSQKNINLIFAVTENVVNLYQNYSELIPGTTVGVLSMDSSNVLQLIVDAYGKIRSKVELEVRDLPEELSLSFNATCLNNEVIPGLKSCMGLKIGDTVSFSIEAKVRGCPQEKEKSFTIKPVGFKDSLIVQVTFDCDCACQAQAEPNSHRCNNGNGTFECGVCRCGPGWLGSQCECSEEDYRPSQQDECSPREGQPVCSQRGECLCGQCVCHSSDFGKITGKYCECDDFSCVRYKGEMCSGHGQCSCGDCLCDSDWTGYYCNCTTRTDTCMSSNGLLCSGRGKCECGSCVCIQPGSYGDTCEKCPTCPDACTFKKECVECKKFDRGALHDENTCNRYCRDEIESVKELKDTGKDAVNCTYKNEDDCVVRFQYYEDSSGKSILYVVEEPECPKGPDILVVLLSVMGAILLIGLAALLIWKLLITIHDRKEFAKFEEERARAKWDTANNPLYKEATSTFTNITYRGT
# Assay: Inhibitory activity against binding of GPIIb/IIIa and fibrinogen
# Conditions: for inhibition at 10 µM / inhibition at 1 µM: read-out: GPIIb/IIIa Fibrinogen Binding Inhibitory Activity
# Description: Test Example 1: Inhibitory activity against binding of GPIIb/IIIa and fibrinogen
# (1) Cultivation of human erythroleukemia-derived cell line (hereinafter referred to as HEL cells)
# HEL cells (HEl92.1.7; ATCC No. TIB180) were purchased from ATCC (Rockville, Md., U.S.A.). The medium was RPMI medium (GIBCO Laboratories, Grand Island, N..Y, U.S.A.) containing 40 mM N-2-hydroxyethylpiperazine-N'-2-ethanesulfonic acid (hereinafter referred to as HEPES) (pH 7.0), 0.2% NaHCO3, 100 μg/ml kanamycin and 10% FCS. The cells were cultured in the presence of 5% CO2 at 37° C., with the medium replaced with a fresh medium to obtain a 4- to 5-fold dilution at intervals of 3 to 4 days.
# (2) Purification of GPIIb/IIIa from HEL cells
# GPIIb/IIIa was purified by a modification of the method of L. A. Fitzgerald et al. [J. Biol. Chem., 262, 3936 (1987)] as follows: All purification was conducted at room temperature, unless otherwise stated. At 7 days of cultivation, cells were collected from the HEL cell culture broth (cell suspension) by centrifugation (1,000 ×g, 10 minutes, 4° C.). After washing with 20 mM Tris-HCl (pH 7.5) containing 1 mM EDTA and 150 mM NaCl, the cells were suspended in a solubilizing buffer (20 mM Tris-HCl, 150 mM NaCl, 1% Triton X-100, 1 mM MgCl2, 1 mM CaCl2, 0.1 mM (p-amidinophenyl)methanesulfonyl fluoride (hereinafter referred to as APMSF), 10 nM leupeptin, 0.02% NaN3, pH 7.4), followed by gentle stirring at 4° C. for 30 minutes, to solubilize the GPIIb/IIIa. The suspension was centrifuged (100,000 ×g, 1 hour) at 4° C., and the cell debris removed, to yield a cell extract. The cell extract was passed through a Heparin-Sepharose CL-6B column (Pharmacia LKB) and a DEAE-Toyopearl 650M column (Tosoh), both previously equilibrated with a column buffer (20 mM Tris-HCl, 150 mM NaCl, 0.1% Triton X-100, 1 mM MgCl2, 1 mM CaCl2, 0.1 mM APMSF, 1 nM leupeptin, 0.05% NaN3, pH 7.4). The effluent was applied to a ConA-Sepharose column (Pharmacia LKB), previously equilibrated with the same column buffer as above, to adsorb the GPIIb/IIIa, followed by elution with the same column buffer but containing 0.5M methyl α-D-mannopyranoside. The eluted fraction was concentrated at 4° C. using an ultrafiltration apparatus (Amicon Corporation the fraction's molecular weight of 10,000), after which it was subjected to gel filtration through a Sephacryl S-300 column (Pharmacia LKB), previously equilibrated with the same column buffer, to yield a purified standard sample.
# (3) Biotinization of human fibrinogen
# Conducted by the method of I. F. Charo [I. F. Charo et al., J. Biol. Chem., 266, 1415 (1991)].
# Human fibrinogen (Kabi Vitrum AB) was dissolved in PBS to 5 mg/ml and then dialyzed at 4° C. against 0.1M carbonate buffer (pH 8.2) containing 0.1M NaCl. After dialysis, insoluble substances were removed by centrifugation (100,000 ×g, 30 minutes), and the dialyzate was diluted to 1 mg/ml with the same buffer. To this dilution, sulfo-N-hydroxysuccinimidebiotin (Pierce Chemical Co.) was added to a final concentration of 0.2 mg/ml, followed by gentle mixing at room temperature for 30 minutes, to biotinize the fibrinogen. After completion of the reaction, the mixture was dialyzed against 0.05M Tris-HCl buffer (pH 7.4) containing 0.1M NaCl and 0.05% NaN3.
# (4) Determination of inhibitory activity against fibrinogen binding
# Conducted by a modification of the method of I. F. Charo [I. F. Charo et al., J. Biol. Chem., 266, 1415 (1991)] as follows: The purified GPIIb/IIIa was diluted to 1 μg/ml with buffer A (20 mM Tris-HCl, 150 mM NaCl, 1 mM CaCl2, 0.02% NaN3, pH 7.4). A 100 μl aliquot of this dilution was dispensed to a 96-well microplate (Maxisorp, produced by Nunc), and the plate kept standing at 4° C., to adsorb the GPIIb/IIIa to the microplate. Next, 150 μl of buffer B (35 mg/ml BSA, 50 mM Tris-HCl, 100 mM NaCl, 2 mM CaCl2, 0.02% NaN3, pH 7.4) was added, followed by 2 hours of blocking at 30° C. […]
Compound,"inhibition at 10 µM (Table 2, 10^-5 M)","inhibition at 1 µM (Table 2, 10^-6 M)",further results
"O=C(O)c1cn(Cc2cscn2)c2c(F)c(N3CCN(c4ccncc4)CC3)c(F)cc2c1=O [Compound 73, 6,8-Difluoro-7-[4-(4-pyridyl)piperazine-1-yl]-1-(4-thiazolylmethyl)-1,4-dihydro-4-oxoquinoline-3-carboxylic acid]",100%,100%,
"O=C(O)c1cn(Cc2ccc(Cl)cc2)c2c(F)c(N3CCNCC3)c(F)cc2c1=O [Compound 74, 1-(4-Chlorobenzyl)-6,8-difluoro-7-(1-piperazinyl)-1,4-dihydro-4-oxoquinoline-3-carboxylic acid]",58.5%,26.1%,
"O=C(O)c1cn(Cc2ccncc2)c2c(F)c(N3CCNCC3)c(F)cc2c1=O [Compound 75, 6,8-Difluoro-7-(1-piperazinyl)-1-(4-pyridylmethyl)-1,4-dihydro-4-oxoquinoline-3-carboxylic acid]",100%,100%,
"COc1ccccc1Cn1cc(C(=O)O)c(=O)c2cc(F)c(N3CCNCC3)c(F)c21 [Compound 76, 6,8-Difluoro-1-(2-methoxybenzyl)-7-(1-piperazinyl)-1,4-dihydro-4-oxoquinoline-3-carboxylic acid]",100%,83.1%,
"COc1ccc(Cn2cc(C(=O)O)c(=O)c3ccc(N4CCC(C5CCNCC5)CC4)cc32)cc1 [Compound 77, 1-(4-Methoxybenzyl)-7-[4-(4-piperidinyl)piperidin-1-yl]-1,4-dihydro-4-oxoquinoline-3-carboxylic acid]",94.5%,100%,
"O=C(O)c1cn(Cc2ccc(F)cc2)c2c(F)c(N3CCC(C4CCNCC4)CC3)c(F)cc2c1=O [Compound 78, 6,8-Difluoro-1-(4-fluorobenzyl)-7-[4-(4-piperidinyl)piperidin-1-yl]-1,4-dihydro-4-oxoquinoline-3-carboxylic acid]",98.1%,100%,
"O=C(O)c1cn(Cc2ccc(C(F)(F)F)cc2)c2c(F)c(N3CCC(C4CCNCC4)CC3)c(F)cc2c1=O [Compound 79, 6,8-Difluoro-7-[4-(4-piperidinyl)piperidin-1-yl]-1-(4-trifiuoromethylbenzyl)-1,4-dihydro-4-oxoquinoline-3-carboxylic acid]",100%,100%,
"COc1cccc(Cn2cc(C(=O)O)c(=O)c3cc(F)c(N4CCC(C5CCNCC5)CC4)c(F)c32)c1 [Compound 80, 6,8-Difluoro-1-(3-methoxybenzyl)-7-[4-(4-piperidinyl)piperidin-1-yl]-1,4-dihydro-4-oxoquinoline-3-carboxylic acid]",100%,100%,
"COc1ccc(Cn2cc(C(=O)O)c(=O)c3ccc(N4CCNCC4)cc32)cc1 [Compound 81, 1-(4-Methoxybenzyl)-7-(4-piperazin-1-yl)-1,4-dihydro-4-oxoquinoline-3-carboxylic acid]",100%,100%,
"O=C(O)c1cn(C2CC2)c2cc(N3CCNCC3)c(F)cc2c1=O [Cyprofloxacin, reference compound]",,,inhibition at 1 µM: 47.6%; inhibition at 10 µM: 85.5%
"CCn1cc(C(=O)O)c(=O)c2cc(F)c(N3CCNCC3)nc21 [Enoxacin, reference compound]",,,"inhibition at 10 µM (Table 1, 1 × 10^-5 M): 62%; inhibition at 1 µM (Table 1, 1 × 10^-6 M): 24.3%"
"CCn1cc(C(=O)O)c(=O)c2cc(F)c(N3CCNCC3)cc21 [Norfloxacin, reference compound]",,,"inhibition at 10 µM (Table 1, 1 × 10^-5 M): 77.4%; inhibition at 1 µM (Table 1, 1 × 10^-6 M): 38.7%"
"CC1COc2c(N3CCN(C)CC3)c(F)cc3c(=O)c(C(=O)O)cn1c23 (stereo not drawn) [Ofloxacin, reference compound]",,,"inhibition at 10 µM (Table 1, 1 × 10^-5 M): 42.4%; inhibition at 1 µM (Table 1, 1 × 10^-6 M): 4%"
"NC1CCN(c2nc3c(cc2F)c(=O)c(C(=O)O)cn3-c2ccc(F)cc2F)C1 (stereo not drawn) [Tosufloxacin, reference compound]",,,"inhibition at 10 µM (Table 1, 1 × 10^-5 M): 37.6%; inhibition at 1 µM (Table 1, 1 × 10^-6 M): 30.7%"
Romechloxaxin [reference compound],,,"GPIIb/IIIa Fibrinogen Binding Inhibitory Activity (Table 1, 1 × 10^-5 M): 59.6%; GPIIb/IIIa Fibrinogen Binding Inhibitory Activity (Table 1, 1 × 10^-6 M): 22.8%"
